Structures can show the parent of a compound that is named as a salt.
What was measured:
DDR1 kinase [1] = molecular target: T1, DDR1 kinase (Homo sapiens, UniProt Q08345); assay: Evaluation of DDR1 kinase inhibition in DDR1-expressing U2OS cells (type I collagen stimulation, PathHunter detection); assay type: cell-based; design: host or cells: U2OS; details: type I collagen 50 µg/mL stimulation, duplicate, read-out: DDR-1 IC50
Description: The solution was further diluted in an E-MEM medium (Fujifilm Wako Pure Chemicals, 051-07615) containing 10% fetal bovine serum (FBS, Gibco, 10270106) to 60000, 6000, 600, 60, 6, and 0.6 nM to prepare test substance solutions. 2. […] On the following day, after the plate was left at room temperature for 1 hour, a detection solution was added to the wells at […] according to the handling instructions for the PathHunter® Detection Kit (DiscoverX, 93-0001), and then incubated at room temperature for 2 hours. After the incubation, a luminescence intensity was measured by Envision (Perkin-Elmer). Tests were performed in duplicate. 3.
Target sequence in this assay (Q08345 19-913): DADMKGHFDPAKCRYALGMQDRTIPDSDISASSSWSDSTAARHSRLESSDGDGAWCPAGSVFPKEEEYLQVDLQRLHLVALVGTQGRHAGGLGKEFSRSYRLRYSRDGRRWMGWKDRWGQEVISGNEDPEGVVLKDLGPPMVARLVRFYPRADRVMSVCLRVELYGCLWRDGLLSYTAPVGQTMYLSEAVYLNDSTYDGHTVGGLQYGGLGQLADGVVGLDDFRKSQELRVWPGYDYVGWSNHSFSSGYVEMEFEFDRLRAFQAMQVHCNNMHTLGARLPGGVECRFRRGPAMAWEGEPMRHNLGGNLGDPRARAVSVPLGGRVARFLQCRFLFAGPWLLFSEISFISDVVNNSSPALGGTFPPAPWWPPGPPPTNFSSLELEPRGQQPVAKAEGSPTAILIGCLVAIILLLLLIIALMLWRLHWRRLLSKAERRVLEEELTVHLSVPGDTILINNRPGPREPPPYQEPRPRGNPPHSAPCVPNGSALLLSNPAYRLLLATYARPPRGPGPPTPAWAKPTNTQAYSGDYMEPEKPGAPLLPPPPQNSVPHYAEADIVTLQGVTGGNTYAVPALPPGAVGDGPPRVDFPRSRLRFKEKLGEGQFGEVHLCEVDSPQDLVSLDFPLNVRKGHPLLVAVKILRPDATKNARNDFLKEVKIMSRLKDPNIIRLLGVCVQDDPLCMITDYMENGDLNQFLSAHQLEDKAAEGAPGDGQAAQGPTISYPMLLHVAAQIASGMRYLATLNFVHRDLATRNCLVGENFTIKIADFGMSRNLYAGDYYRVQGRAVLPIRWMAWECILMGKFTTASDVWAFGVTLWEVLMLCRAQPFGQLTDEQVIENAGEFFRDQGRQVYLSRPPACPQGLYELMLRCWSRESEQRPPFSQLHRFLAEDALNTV

DDR1 kinase [2] = molecular target: T1, DDR1 kinase; assay: Evaluation of DDR1 kinase inhibition (LANCE Ultra TR-FRET kinase assay); assay type: biochemical; design: purchased Carna Biosciences 08-113; details: DDR1 protein 0.5 nM, LANCE Ultra ULight-poly GAT substrate, 2 hours at room temperature, duplicate; read-out: DDR-1 IC50
Target sequence in this assay (Q08345 19-876 isoform Q08345-2 limits assumed): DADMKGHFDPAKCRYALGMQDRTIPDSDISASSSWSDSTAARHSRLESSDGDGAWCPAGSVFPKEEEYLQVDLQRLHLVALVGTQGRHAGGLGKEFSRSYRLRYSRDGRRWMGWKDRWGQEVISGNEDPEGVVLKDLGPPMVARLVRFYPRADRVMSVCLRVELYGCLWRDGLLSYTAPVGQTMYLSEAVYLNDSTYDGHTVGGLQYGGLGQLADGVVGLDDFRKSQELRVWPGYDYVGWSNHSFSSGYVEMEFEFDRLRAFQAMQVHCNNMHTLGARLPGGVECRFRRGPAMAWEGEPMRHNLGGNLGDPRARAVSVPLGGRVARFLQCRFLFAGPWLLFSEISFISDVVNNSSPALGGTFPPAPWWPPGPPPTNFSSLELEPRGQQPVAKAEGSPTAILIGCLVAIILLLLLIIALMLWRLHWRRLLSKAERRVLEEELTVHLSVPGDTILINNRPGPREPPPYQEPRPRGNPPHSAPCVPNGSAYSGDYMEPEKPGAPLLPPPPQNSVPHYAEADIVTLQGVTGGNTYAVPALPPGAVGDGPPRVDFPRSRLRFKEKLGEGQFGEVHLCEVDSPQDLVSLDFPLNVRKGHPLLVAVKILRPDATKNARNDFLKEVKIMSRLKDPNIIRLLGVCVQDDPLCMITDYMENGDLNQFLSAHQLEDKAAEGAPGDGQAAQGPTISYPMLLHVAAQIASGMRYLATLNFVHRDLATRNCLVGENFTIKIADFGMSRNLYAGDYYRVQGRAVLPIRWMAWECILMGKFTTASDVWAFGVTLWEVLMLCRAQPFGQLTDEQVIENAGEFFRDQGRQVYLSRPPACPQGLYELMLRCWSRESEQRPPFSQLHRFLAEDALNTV

IC50 (DDR1 kinase [1])	IC50 (DDR1 kinase [2])	Compound
78 nM	0.4 nM	O=C(Cn1nc(C2CN(C(=O)c3ccnc(NC4CC4)c3)C2)c2c(Cl)c(F)ccc21)NCC(F)(F)F [Compound E-1, 2-(4-chloro-3-{1-[2-(cycloropylamino)pyridine-4-carbonyl]azetidin-3-yl}-5-fluoro-1H-indazol-1-yl)-N-(2,2,2-trifluoroethyl)acetamide hydrochloride]
55 nM	2 nM	CN(CC(F)(F)F)C(=O)Cn1nc(C2CN(C(=O)c3ccnc(N)n3)C2)c2cc(Cl)ccc21 [Compound E-4, 2-{3-[1-(2-aminopyrimidine-4-carbonyl)azetidin-3-yl]-5-chloro-1H-indazol-1-yl}-N-methyl-N-(2,2,2-trifluoroethyl)acetamide]
230 nM	5.2 nM	Cc1c(C(=O)N2CC(c3nn(CC(=O)N4CCO[C@@H](C(F)(F)F)C4)c4ccccc34)C2)ccnc1N [Compound E-8, 2-{3-[1-(2-amino-3-methylpyridine-4-carbonyl)azetidin-3-yl]-1H-indazol-1-yl}-1-[(2R)-2-(trifluoromethyl)morpholin-4-yl]ethan-1-one]
110 nM	6.1 nM	Nc1cc(C(=O)N2CC(c3cn(CC(=O)N4CCC[C@H]4C(F)(F)F)c4ccccc34)C2)ccn1 [Compound E-11, 2-{3-[1-(2-aminopyridine-4-carbonyl)azetidin-3-yl]-1H-indol-1-yl}-1-[(2S)-2-(trifluoromethyl)pyrrolidin-1-yl]ethan-1-one]
330 nM	7.5 nM	Cc1ccc2c(n1)c(C1CN(C(=O)c3ccnc(N)c3)C1)nn2CC(=O)N1CCC[C@H]1C(F)(F)F [Compound E-12, 2-{3-[1-(2-aminopyridine-4-carbonyl)azetidin-3-yl]-5-methyl-1H-pyrazolo[4,3-b]pyridin-1-yl}-1-[(2S)-2-(trifluoromethyl)pyrrolidin-1-yl]ethan-1-one]
1200 nM	47 nM	Nc1cc(C(=O)N2CC(c3nn(CC(=O)N4CCC[C@H]4C(F)(F)F)c4ccncc34)C2)ccn1 [Compound E-13, 2-{3-[1-(2-aminopyridine-4-carbonyl)azetidin-3-yl]-1H-pyrazolo[4,3-c]pyridin-1-yl]-1-[(2S)-2-(trifluoromethyl)pyrrolidin-1-yl]ethan-1-one hydrochloride]
2600 nM	210 nM	Cc1ccnc2c1c(C1CN(C(=O)c3ccnc(N)c3)C1)nn2CC(=O)N1CCC[C@H]1C(F)(F)F [Compound E-15, 2-{3-[1-(2-aminopyridine-4-carbonyl)azetidin-3-yl]-4-methyl-1H-pyrazolo[3,4-b]pyridin-1-yl}-1-[(2S)-2-(trifluoromethyl)pyrrolidin-1-yl]ethan-1-one]
720 nM	15 nM	Nc1cc(C(=O)N2CC(c3nn(CC(=O)N4CCC[C@H]4C(F)(F)F)c4cc(F)cc(F)c34)C2)cnn1 [Compound E-16, 2-{3-[1-(6-aminopyridazine-4-carbonyl)azetidin-3-yl]-4,6-difluoro-1H-indazol-1-yl)-1-[(2S)-2-(trifluoromethyl)pyrrolidin-1-yl]ethan-1-one]
26 nM	6.9 nM	Nc1cc(C(=O)N2CC(c3nn(Cc4nc(C(F)(F)F)no4)c4ccccc34)C2)c(F)cn1 [Compound E-18, 5-fluoro-4-[3-(1-{[3-(trifluoromethyl)-1,2,4-oxadiazol-5-yl]methyl}-1H-indazol-3-yl)azetidine-1-carbonyl]pyridin-2-amine]
84 nM	56 nM	Nc1cc(C(=O)N2CC(c3nn(Cc4cn(CC5CC(F)(F)C5)nn4)c4cccc(F)c34)C2)ccn1 [Compound E-19, 4-{3-[1-({1-[(3,3-difluorocyclobutyl)methyl]-1H-1,2,3-triazol-4-yl}methyl)-4-fluoro-1H-indazol-3-yl]azetidine-1-carbonyl}pyridin-2-amine hydrochloride]
140 nM	1.5 nM	CN(CC(F)(F)F)C(=O)Cn1nc(C2CN(C(=O)c3nc(N)ncc3F)C2)c2cc(Cl)ccc21 [Compound E-21, 2-{3-[1-(2-amino-5-fluoropyrimidine-4-carbonyl)azetidin-3-yl]-5-chloro-1H-indazol-1-yl}-N-methyl-N-(2,2,2-trifluoroethyl)acetamide]
18 nM	5.6 nM	Nc1ncc(F)c(C(=O)N2CC(c3nn(CC(=O)N4CCC[C@H]4C(F)(F)F)c4ccccc34)C2)n1 [Compound E-22, 2-{3-[1-(2-amino-5-fluoropyrimidine-4-carbonyl)azetidin-3-yl]-1H-indazol-1-yl}-1-[(2S)-2-(trifluoromethyl)pyrrolidin-1-yl]ethan-1-one]
74 nM	4.1 nM	O=C(Cn1nc(C2CN(C(=O)c3ccnc(NC4CC4)c3)C2)c2c(F)cc(F)cc21)NCC(F)(F)F [Compound E-30, 2-(3-{1-[2-(cyclopropylamino)pyridine-4-carbonyl]azetidin-3-yl}-4,6-difluoro-1H-indazol-1-yl)-N-(2,2,2-trifluoroethyl)acetamide hydrochloride]
690 nM	21 nM	O=C(Cn1nc(C2CN(C(=O)c3cc(NC4CC4)ncn3)C2)c2c(F)cc(F)cc21)NCC(F)(F)F [Compound E-31, 2-(3-{1-[6-(cyclopropylamino)pyrimidine-4-carbonyl]azetidin-3-yl}-4,6-difluoro-1H-indazol-1-yl)-N-(2,2,2-trifluoroethyl)acetamide]
2000 nM	31 nM	Nc1cc(C(=O)N2CC(c3nn(Cc4cn(Cc5ccccc5)nn4)c4cccc(F)c34)C2)ccn1 [Compound E-35, 4-(3-{1-[(1-benzyl-1H-1,2,3-triazol-4-yl)methyl]-4-fluoro-1H-indazol-3-yl}azetidine-1-carbonyl)pyridin-2-amine hydrochloride]
2600 nM	50 nM	Nc1cc(C(=O)N2CC(c3nn(Cc4cn(CC5CC5)nn4)c4cccc(F)c34)C2)ccn1 [Compound E-37, 4-[3-(1-{[1-(cyclopropylmethyl)-1H-1,2,3-triazol-4-yl]methyl}-4-fluoro-1H-indazol-3-yl)azetidine-1-carbonyl]pyridin-2-amine hydrochloride]
69 nM	5.7 nM	Nc1cc(C(=O)N2CC(c3nn(CC(=O)N4CCC[C@H]4C(F)(F)F)c4ccccc34)C2)ccn1 [Compound E-40, 2-{3-[1-(2-aminopyridine-4-carbonyl)azetidin-3-yl]-1H-indazol-1-yl}-1-[(2S)-2-(trifluoromethyl)pyrrolidin-1-yl]ethan-1-one]
150 nM	3.2 nM	Nc1cc(C(=O)N2CC(c3nn(CC(=O)N4CCO[C@@H](C(F)(F)F)C4)c4cc(F)cc(F)c34)C2)c(F)cn1 [Compound E-42, 2-{3-[1-(2-amino-5-fluoropyridine-4-carbonyl)azetidin-3-yl]-4,6-difluoro-1H-indazol-1-yl)-1-[(2R)-2-(trifluoromethyl)morpholin-4-yl]ethan-1-one]
140 nM	4.4 nM	CN(CC(F)(F)F)C(=O)Cn1nc(C2CN(C(=O)c3ccnc(N)c3)C2)c2ccccc21 [Compound E-45, 2-{3-[1-(2-aminopyridine-4-carbonyl)azetidin-3-yl]-1H-indazol-1-yl}-N-methyl-N-(2,2,2-trifluoroethyl)acetamide]
1900 nM	28 nM	Nc1cc(C(=O)N2CC(c3nn(CC(=O)N4CCC[C@@H]4C(F)(F)F)c4cc(F)cc(F)c34)C2)ccn1 [Compound E-50, 2-{3-[1-(2-aminopyridine-4-carbonyl)azetidin-3-yl]-4,6-difluoro-1H-indazol-1-yl]-1-[(2R)-2-(trifluoromethyl)pyrrolidin-1-yl]ethan-1-one]
400 nM	12 nM	Cc1c(C(=O)N2CC(c3nn(CC(=O)N4CCO[C@@H](C(F)(F)F)C4)c4cc(F)cc(F)c34)C2)ccnc1N [Compound E-51, 2-{3-[1-(2-amino-3-methylpyridine-4-carbonyl)azetidin-3-yl]-4,6-difluoro-1H-indazol-1-yl}-1-[(2R)-2-(trifluoromethyl)morpholin-4-yl]ethan-1-one hydrochloride]
180 nM	6.2 nM	Nc1cc(C(=O)N2CC(c3nn(CC(=O)N4CCC[C@H]4C(F)(F)F)c4cncc(F)c34)C2)ccn1 [Compound E-54, 2-{3-[1-(2-aminopyridine-4-carbonyl)azetidin-3-yl]-4-fluoro-1H-pyrazolo[3,4-c]pyridin-1-yl}-1-[(2S)-2-(trifluoromethyl)pyrrolidin-1-yl]ethan-1-one hydrochloride]
	2.3 nM	Cc1ccc2c(c1)c(C1CN(C(=O)c3ccnc(N)n3)C1)nn2CC(=O)N1CCC[C@H]1C(F)(F)F [Compound E-292, 2-{3-[1-(2-aminopyrimidine-4-carbonyl)azetidin-3-yl]-5-methyl-1H-indazol-1-yl]-1-[(2S)-2-(trifluoromethyl)pyrrolidin-1-yl]ethan-1-one]
	26 nM	CN(CC(F)(F)F)C(=O)Cn1nc(C2CN(C(=O)c3ccnc(N)n3)C2)c2cc(F)ccc21 [Compound E-293, 2-{3-[1-(2-aminopyrimidine-4-carbonyl)azetidin-3-yl]-5-fluoro-1H-indazol-1-yl]-N-methyl-N-(2,2,2-trifluoroethyl)acetamide]
	160 nM	CC1(C)CCc2c(c(C3CN(C(=O)c4ccnc(N)n4)C3)nn2CC(=O)N2CCC[C@H]2C(F)(F)F)C1 [Compound E-295, 2-{3-[1-(2-aminopyrimidine-4-carbonyl)azetidin-3-yl]-5,5-dimethyl-4,5,6,7-tetrahydro-1H-indazol-1-yl}-1-[(2S)-2-(trifluoromethyl)pyrrolidin-1-yl]ethan-1-one]

— patent publication EP4624465A1, “COMPOUND SERVING AS DDR1 KINASE INHIBITOR, AND MEDICINE” (Nippon Shinyaku Co., Ltd., priority 2022, dated 2024)
